Values quoted from earlier work as cited in publication PMC7395068, “The evolution of strategies to minimise the risk of human drug-induced liver injury (DILI) in drug discovery and development” (Archives of Toxicology, 2020).
Read-outs that look alike come from different tables or passages of the source.

Experiments:
[1] = cited from earlier work
[2] = tested on: HepG2 C3A spheroid, BSEP, Glu/Gal in HepG2 cells, bioactivation; settings: cited from earlier work
[3] = tested on: THLE or HepG2 cells, isolated mitochondria, BSEP; settings: In vitro Assay; ref Aleo 2019; cited from earlier work
hLiMTs = settings: In vitro Assay; ref Proctor 2017; cited from earlier work
[4] = ref Chen 2016; cited from earlier work
PHH = settings: In vitro Assay; ref Proctor 2017; cited from earlier work
[5] = tested on: HepG2 cells, primary human hepatocytes; settings: In vitro Assay; ref Garside 2014; cited from earlier work
[6] = tested on: THLE-Null and THLE-3A4 cells; settings: In vitro Assay; ref Gustafsson 2014; cited from earlier work
PHH spheroids = settings: In vitro Assay; ref Vorrink 2018; cited from earlier work
human hepatocytes = settings: In vitro Assay; ref Xu 2008; cited from earlier work
[7] = tested on: primary human hepatocytes, NIH3T3 fibroblasts, BSEP, CYP3A4; settings: In vitro Assay; ref Schadt 2015; cited from earlier work
HepG2 cells [8] = settings: In vitro Assay; ref O'Brien 2006; cited from earlier work
rBsep = settings: In vitro Assay; ref Dawson 2012; cited from earlier work
HepG2 cells [9] = settings: cited from earlier work; for Cluser analysis / Structural based (HCI): In vitro Assay, ref Persson 2013
[10] = In vitro Assay, ref Williams 2019

CC(C)(C)NCC(O)c1ccc(O)c(CO)c1 (stereo not shown) [albuterol]
In vivo DILI ([1]; ref Aleo 2019): -VE
In vivo DILI ([1]; ref Proctor 2017): -VE
In vivo DILI ([1]; ref Williams 2019): -VE
Bayesian Machine Learning ([2]; ref Williams 2019): -VE
Partition Hybrid HRM Score [3]: -VE
Ro2 Hybrid HRM Score [3]: -VE

Cc1c(N(C)C)c(=O)n(-c2ccccc2)n1C [aminopyrine]
Bayesian Machine Learning ([2]; ref Williams 2019): +VE

CN1[C@@H]2CC[C@H]1C[C@@H](OC(c1ccccc1)c1ccccc1)C2 [benztropine]
In vivo DILI ([1]; ref Aleo 2019): -VE
In vivo DILI ([1]; ref Proctor 2017): -VE
In vivo DILI ([1]; ref Williams 2019): -VE
hLiMTs ATP <100uM (hLiMTs): +VE (IC50 threshold of 100 µM)
Bayesian Machine Learning ([2]; ref Williams 2019): -VE
DILI +VE (5-8), DILI -VE (-4) [4]: -VE
DILI severity category [4]: vNo-DILI-Concern
PHH ATP <100uM (PHH): +VE (IC50 threshold of 100 µM)
Ro2 Hybrid HRM Score [3]: -VE

CC(C)(Oc1ccc(CCNC(=O)c2ccc(Cl)cc2)cc1)C(=O)O [bezafibrate]
Cluster 1-6 +VE Assay [5]: -VE
THLE-Null [6]: -VE
THLE-Null/3A4 [6]: -VE
hLiMTs ATP <20 x Cmax (PHH spheroids): -VE
In vivo DILI ([1]; ref Dawson 2012): +VE
In vivo DILI ([1]; ref Garside 2014): +VE
In vivo DILI ([1]; ref Gustafsson 2014): +VE
In vivo DILI ([1]; ref O'Brien 2006): -VE
In vivo DILI ([1]; ref Schadt 2015): -VE
In vivo DILI ([1]; ref Vorrink 2018): -VE
In vivo DILI ([1]; ref Xu 2008): -VE
Structural based (HCI) (human hepatocytes): -VE
Cellular toxicity (3T3 cells) [7]: -VE
Combined Assay [7]: -VE
GSH adduct HML [7]: -VE
Hepatocyte cellular toxicity [7]: -VE
MitoTox 3T3 [7]: -VE
TDI CYP3A4 [7]: -VE
hBSEP inhibition [7]: -VE
Structural based (HCI) (HepG2 cells [8]): +VE
Inhibition of rBsep cutoff<1& cmax u>.2 (rBsep): -VE
Inhibition of rBsep cutoff<3 (rBsep): -VE

Nc1c(CC(=O)O)cccc1C(=O)c1ccc(Br)cc1 [bromfenac, reference compound]
THLE-Null [6]: -VE
THLE-Null/3A4 [6]: -VE
In vivo DILI ([1]; […]): +VE
In vivo DILI ([1]; ref Aleo 2019): +VE
In vivo DILI ([1]; ref Gustafsson 2014): +VE
In vivo DILI ([1]; ref Persson 2013): +VE
In vivo DILI ([1]; ref Schadt 2015): +VE
In vivo DILI ([1]; ref Williams 2019): +VE
Bayesian Machine Learning [2, 10]: +VE
DILI +VE (5-8), DILI -VE (-4) [4]: +VE
DILI severity category [4]: vMost-DILI-Concern
Cluser analysis (HepG2 cells [9]): -VE
Structural based (HCI) (HepG2 cells [9]): -VE
DILI in vitro assay prediction, Persson (2013) (HepG2 cells [9]; Structural based (HCI), HepG2, ref Persson et al. 2013): negative
Cellular toxicity (3T3 cells) [7]: -VE
Combined Assay [7]: -VE
GSH adduct HML [7]: -VE
Hepatocyte cellular toxicity [7]: -VE
MitoTox 3T3 [7]: -VE
TDI CYP3A4 [7]: -VE
hBSEP inhibition [7]: -VE
Partition Hybrid HRM Score [3]: +VE
Ro2 Hybrid HRM Score [3]: +VE

O=C1[C@H](CC[C@H](O)c2ccc(F)cc2)[C@@H](c2ccc(O)cc2)N1c1ccc(F)cc1 [ezetimibe]
In vivo DILI ([1]; ref Williams 2019): +VE
Bayesian Machine Learning [2, 10]: -VE
DILI +VE (5-8), DILI -VE (-4) [4]: +VE
DILI severity category [4]: vLess-DILI-Concern

Nc1nc(F)nc2c1ncn2[C@@H]1O[C@H](CO)[C@@H](O)[C@@H]1O [fludarabine]
In vivo DILI ([1]; ref Proctor 2017): -VE
In vivo DILI ([1]; ref Williams 2019): -VE
hLiMTs ATP <100uM (hLiMTs): +VE (IC50 threshold of 100 µM)
Bayesian Machine Learning [2]: -VE
DILI +VE (5-8), DILI -VE (-4) [4]: -VE
DILI severity category [4]: vNo-DILI-Concern
PHH ATP <100uM (PHH): -VE

O=C(NC1CCN(CCc2c[nH]c3ccccc23)CC1)c1ccccc1 [indoramin]
In vivo DILI ([1]; ref Proctor 2017): -VE
In vivo DILI ([1]; ref Williams 2019): -VE
hLiMTs ATP <100uM (hLiMTs): -VE
Bayesian Machine Learning ([2]; ref Williams 2019): -VE
PHH ATP <100uM (PHH): -VE

CCC(C)n1ncn(-c2ccc(N3CCN(c4ccc(OCC5COC(Cn6cncn6)(c6ccc(Cl)cc6Cl)O5)cc4)CC3)cc2)c1=O (stereo not shown) [itraconazole]
In vivo DILI ([1]; ref O'Brien 2006): +VE
In vivo DILI ([1]; ref Persson 2013): +VE
In vivo DILI ([1]; ref Proctor 2017): +VE
In vivo DILI ([1]; ref Schadt 2015): +VE
In vivo DILI ([1]; ref Williams 2019): +VE
hLiMTs ATP <100uM (hLiMTs): +VE (IC50 threshold of 100 µM)
Bayesian Machine Learning [2, 10]: +VE
DILI +VE (5-8), DILI -VE (-4) [4]: +VE
DILI severity category [4]: vMost-DILI-Concern
Cluser analysis (HepG2 cells [9]): +VE
Structural based (HCI) (HepG2 cells [9]): +VE
Cellular toxicity (3T3 cells) [7]: -VE
Combined Assay [7]: +VE
GSH adduct HML [7]: -VE
Hepatocyte cellular toxicity [7]: -VE
MitoTox 3T3 [7]: +VE
TDI CYP3A4 [7]: -VE
hBSEP inhibition [7]: -VE
Structural based (HCI) (HepG2 cells [8]): +VE
PHH ATP <100uM (PHH): -VE

Cc1ccc(Cl)c(Nc2ccccc2C(=O)O)c1Cl [meclofenamate]
In vivo DILI ([1]; ref Williams 2019): -VE
In vivo DILI ([1]; ref Xu 2008): +VE
Structural based (HCI) (human hepatocytes): +VE
Bayesian Machine Learning ([2]; ref Williams 2019): +VE

CN1C[C@H](CNC(=O)OCc2ccccc2)C[C@@H]2c3cccc4c3c(cn4C)C[C@H]21 [metergoline]
Bayesian Machine Learning ([2]; ref Williams 2019): -VE

COC(=O)C1=C(C)NC(C)=C(C(=O)OCCN(C)Cc2ccccc2)C1c1cccc([N+](=O)[O-])c1 (stereo not shown) [nicardipine]
hLiMTs ATP <20 x Cmax (PHH spheroids): -VE
Bayesian Machine Learning [2, 10]: -VE

CN1Cc2c(N)cccc2C(c2ccccc2)C1 (stereo not shown) [nomifensine]
Cluster 1-6 +VE Assay [5]: -VE
THLE-Null [6]: -VE
hLiMTs ATP <20 x Cmax (PHH spheroids): +VE (IC20 < 20 × Cmax.tot cut-off)
In vivo DILI ([1]; ref Aleo 2019): +VE
In vivo DILI ([1]; ref Dawson 2012): +VE
In vivo DILI ([1]; ref Garside 2014): +VE
In vivo DILI ([1]; ref Gustafsson 2014): +VE
In vivo DILI ([1]; ref O'Brien 2006): -VE
In vivo DILI ([1]; ref Persson 2013): +VE
In vivo DILI ([1]; ref Vorrink 2018): +VE
In vivo DILI ([1]; ref Xu 2008): +VE
Structural based (HCI) (human hepatocytes): -VE
DILI +VE (5-8), DILI -VE (-4) [4]: +VE
DILI severity category [4]: vMost-DILI-Concern
Cluser analysis (HepG2 cells [9]): -VE
Structural based (HCI) (HepG2 cells [9]): -VE
Structural based (HCI) (HepG2 cells [8]): -VE
Inhibition of rBsep cutoff<1& cmax u>.2 (rBsep): -VE
Partition Hybrid HRM Score [3]: +VE
Ro2 Hybrid HRM Score [3]: -VE

O=c1[nH]c2ccccc2n1C1CCN(CCCC(c2ccc(F)cc2)c2ccc(F)cc2)CC1 [pimozide]
In vivo DILI ([1]; ref O'Brien 2006): -VE
In vivo DILI ([1]; ref Proctor 2017): +VE
In vivo DILI ([1]; ref Williams 2019): +VE
hLiMTs ATP <100uM (hLiMTs): +VE (IC50 threshold of 100 µM)
Bayesian Machine Learning ([2]; ref Williams 2019): +VE
DILI +VE (5-8), DILI -VE (-4) [4]: -VE
DILI severity category [4]: vNo-DILI-Concern
Structural based (HCI) (HepG2 cells [8]): -VE
PHH ATP <100uM (PHH): -VE

CC(N/C(=N\C#N)Nc1ccncc1)C(C)(C)C (stereo not shown) [pinacidil]
Cluster 1-6 +VE Assay [5]: +VE
THLE-Null [6]: -VE
THLE-Null/3A4 [6]: -VE
hLiMTs ATP <20 x Cmax (PHH spheroids): -VE
In vivo DILI ([1]; in vivo): -VE
Structural based (HCI) (human hepatocytes): -VE
Cluser analysis (HepG2 cells [9]): -VE
Structural based (HCI) (HepG2 cells [9]): -VE
Structural based (HCI) (HepG2 cells [8]): -VE
Inhibition of rBsep cutoff<1& cmax u>.2 (rBsep): -VE
Inhibition of rBsep cutoff<3 (rBsep): +VE

CN(C)C(=O)Oc1ccc[n+](C)c1 [pyridostigmine]
Bayesian Machine Learning [2]: -VE

Cc1ncc(CO)c(CO)c1O [pyridoxine]
Cluster 1-6 +VE Assay [5]: -VE
THLE-Null [6]: -VE
THLE-Null/3A4 [6]: -VE
hLiMTs ATP <20 x Cmax (PHH spheroids): -VE
In vivo DILI ([1]; ref Dawson 2012): -VE
In vivo DILI ([1]; ref Garside 2014): -VE
In vivo DILI ([1]; ref Gustafsson 2014): -VE
In vivo DILI ([1]; ref O'Brien 2006): -VE
In vivo DILI ([1]; ref Persson 2013): -VE
In vivo DILI ([1]; ref Vorrink 2018): -VE
In vivo DILI ([1]; ref Xu 2008): -VE
Structural based (HCI) (human hepatocytes): -VE
DILI +VE (5-8), DILI -VE (-4) [4]: -VE
DILI severity category [4]: vNo-DILI-Concern
Cluser analysis (HepG2 cells [9]): -VE
Structural based (HCI) (HepG2 cells [9]): -VE
Structural based (HCI) (HepG2 cells [8]): +VE
Inhibition of rBsep cutoff<1& cmax u>.2 (rBsep): -VE
Inhibition of rBsep cutoff<3 (rBsep): -VE

Cc1c(C(=O)NN2CCCCC2)nn(-c2ccc(Cl)cc2Cl)c1-c1ccc(Cl)cc1 [rimonabant]
THLE-Null [6]: +VE
THLE-Null/3A4 [6]: +VE
In vivo DILI ([1]; ref Gustafsson 2014): -VE
In vivo DILI ([1]; ref Williams 2019): -VE
Bayesian Machine Learning ([2]; ref Williams 2019): +VE

Cc1cc2c(cc1CC(=O)c1sccc1S(=O)(=O)Nc1onc(C)c1Cl)OCO2 [sitaxentan]
In vivo DILI ([1]; ref Aleo 2019): +VE
In vivo DILI ([1]; ref Proctor 2017): +VE
In vivo DILI ([1]; ref Schadt 2015): +VE
In vivo DILI ([1]; ref Williams 2019): +VE
hLiMTs ATP <100uM (hLiMTs): -VE
Bayesian Machine Learning [2, 10]: +VE
DILI +VE (5-8), DILI -VE (-4) [4]: +VE
DILI severity category [4]: vMost-DILI-Concern
Cellular toxicity (3T3 cells) [7]: -VE
Combined Assay [7]: +VE
GSH adduct HML [7]: +VE
Hepatocyte cellular toxicity [7]: +VE
MitoTox 3T3 [7]: -VE
TDI CYP3A4 [7]: +VE
hBSEP inhibition [7]: +VE
PHH ATP <100uM (PHH): -VE
Partition Hybrid HRM Score [3]: +VE
Ro2 Hybrid HRM Score [3]: +VE
